Measurements: ChEMBL document CHEMBL1201862, “PubChem BioAssay data set” (2004)
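All cell lines were grown in 96-well plates and treated with compound for 48 hours. Abbreviation: GI50, concentration required for 50% inhibition of growth.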 Calls of active or inactive are those of the source. No stated cut-off is given here; in the data, active = GI50 up to about 1.1 µM and inactive = higher.

Legend:
Assay in all cases: NCI-60 cell line screen, 48 h
[1] = system: A549
[2] = system: MDA-MB-435
[3] = system: KM12
[4] = system: T47D
[5] = system: NCI-H460
[6] = system: SK-OV-3
[7] = system: MCF7
[8] = system: OVCAR-5
[9] = system: OVCAR-4
[10] = system: K562
[11] = system: SW-620
[12] = system: SR
[13] = system: SF-539
[14] = system: PC-3
[15] = system: HT-29
[16] = system: Malme-3M
[17] = system: HOP-92
[18] = system: TK-10
[19] = system: HCT-116
[20] = system: EKVX
[21] = system: NCI/ADR-RES
[22] = system: HOP-62
[23] = system: LOX IMVI
[24] = system: NCI-H23
[25] = system: A498
[26] = system: IGROV-1
[27] = system: M14
[28] = system: UACC-257
[29] = system: SNB-19
[30] = system: UACC-62
[31] = system: MOLT-4
[32] = system: SK-MEL-2
[33] = system: BT-549
[34] = system: OVCAR-8
[35] = system: RPMI-8226
[36] = system: HCT-15
[37] = system: NCI-H226
[38] = system: CAKI-1
[39] = system: OVCAR-3
[40] = system: MDA-MB-231
[41] = system: MDA-N
[42] = system: UO-31
[43] = system: Hs-578T
[44] = system: SK-MEL-5
[45] = system: DU-145
[46] = system: SF-295
[47] = system: SK-MEL-28
[48] = system: SN12C
[49] = system: HCC 2998
[50] = system: SF-268
[51] = system: ACHN
[52] = system: 786-0
[53] = system: U-251
[54] = system: SNB-75
[55] = system: RXF 393
[56] = system: COLO 205
[57] = system: HL-60

COC(=O)C1(C)OC(C)=NC1(C(=O)OC)C(=O)OC (configuration not stated)
GI50 [1]: > 100 µM (inactive)
GI50 [2]: > 100 µM (inactive)
GI50 [3]: > 100 µM (inactive)
GI50 [4]: > 100 µM (inactive)
GI50 [5]: > 100 µM (inactive)
GI50 [6]: > 100 µM (inactive)
GI50 [7]: > 100 µM (inactive)
GI50 [8]: > 100 µM (inactive)
GI50 [9]: > 100 µM (inactive)
GI50 [10]: > 100 µM (inactive)
GI50 [11]: > 100 µM (inactive)
GI50 [12]: > 100 µM (inactive)
GI50 [13]: > 100 µM (inactive)
GI50 [14]: > 100 µM (inactive)
GI50 [15]: > 100 µM (inactive)
GI50 [16]: > 100 µM (inactive)
GI50 [17]: 1.45 µM (inactive)
GI50 [18]: > 100 µM (inactive)
GI50 [19]: > 100 µM (inactive)
GI50 [20]: > 100 µM (inactive)
GI50 [21]: > 100 µM (inactive)
GI50 [22]: > 100 µM (inactive)
GI50 [23]: > 100 µM (inactive)
GI50 [24]: > 100 µM (inactive)
GI50 [25]: > 100 µM (inactive)
GI50 [26]: > 100 µM (inactive)
GI50 [27]: > 100 µM (inactive)
GI50 [28]: > 100 µM (inactive)
GI50 [29]: > 100 µM (inactive)
GI50 [30]: > 100 µM (inactive)
GI50 [31]: > 100 µM (inactive)
GI50 [32]: > 100 µM (inactive)
GI50 [33]: > 31.6 µM (inactive)
GI50 [34]: > 100 µM (inactive)
GI50 [35]: > 100 µM (inactive)
GI50 [36]: > 100 µM
GI50 [37]: > 100 µM (inactive)
GI50 [38]: > 100 µM (inactive)
GI50 [39]: > 100 µM (inactive)
GI50 [40]: > 100 µM (inactive)
GI50 [41]: > 100 µM (inactive)
GI50 [42]: > 100 µM (inactive)
GI50 [43]: > 100 µM (inactive)
GI50 [44]: > 100 µM (inactive)
GI50 [45]: > 100 µM (inactive)
GI50 [46]: > 100 µM (inactive)
GI50 [47]: > 100 µM (inactive)
GI50 [48]: > 100 µM (inactive)
GI50 [49]: > 100 µM (inactive)
GI50 [50]: > 100 µM (inactive)
GI50 [51]: > 100 µM (inactive)
GI50 [52]: > 100 µM (inactive)
GI50 [53]: > 100 µM (inactive)
GI50 [54]: > 100 µM (inactive)
GI50 [55]: > 100 µM (inactive)
GI50 [56]: > 100 µM (inactive)
GI50 [57]: 2.18 µM (inactive)
